system: Trichoplusia ni (cabbage looper) larvae; experiment: In-planta insecticidal efficacy (sprayed green cabbage plants, larval survival, Abbott and Colby formulas) against Trichoplusia ni; type: in vivo; conditions: Abbott formula vs 10% isopropanol control; Exirel at […] ([…] cyantraniliprole), aliphatic acids at 750 ppm
Description: Water and 10% isopropanol were tested as control treatments.
Green cabbage plants (Brassica oleracea var. capitate, Danish Ballhead cultivar) were grown from seed (available from West Coast Seeds, Delta, BC, Canada) in potting soil for 4-6 weeks in a pest-free indoor growing environment. At between 4-6 weeks of age, each cabbage plant was sprayed with 20 mL of treatment solution using a pressurized CO2 sprayer from approximately 18 inches above the plant, and allowed to dry.
(§1) While for SF<1, antagonism is present and for SF=1, the efficacy of the compounds is merely additive.
Cyantraniliprole was provided as the active ingredient in Exirel® insecticide (available from FMC Corp., Philadephia, PA, USA), and is present as 10% w/w of the Exirel® insecticide product formulation.

Row | Structure (SMILES) | Observed Efficacy, W (%)
1 | C=CCCCCCCCC(=O)O [9-Decenoic acid, 9-decenoic acid] | −0.4%
2 | CCCCCCCCCC(=O)[O-].[K+] [Potassium Caprate] | 5.5%
3 | CCC/C=C/C(=O)[O-].[K+] [trans-2-Hexenoic acid, potassium salt] | 11.3%
4 | CC/C=C/CC(=O)[O-].[K+] [trans-3-Hexenoic acid, potassium salt] | 7.1%

same assay, conditions: in-planta, T. ni larvae on sprayed cabbage; Exirel at […] ([…] cyantraniliprole), aliphatic acids at 750 ppm, 10% isopropanol

Row | Structure (SMILES) | Survival Rate (%)
5 | C=CCCCCCCCC(=O)O [9-Decenoic acid, 9-decenoic acid] | 65.8%
6 | CCCCCCCCCC(=O)[O-].[K+] [Potassium Caprate] | 69.7%
7 | CCCCCCC/C=C/C(=O)O [Trans-2-decenoic acid, trans-2-decenoic acid] | 66.1%
8 | CCC/C=C/C(=O)[O-].[K+] [trans-2-Hexenoic acid, potassium salt] | 73.6%
9 | CC/C=C/CC(=O)[O-].[K+] [trans-3-Hexenoic acid, potassium salt] | 70.8%

system: Trichoplusia ni (cabbage looper) larvae; experiment: In-vitro insecticidal efficacy (mortality and bioactivity, treated artificial diet, Abbott and Colby formulas) against Trichoplusia ni; type: in vivo; conditions: Table 69A; Coragen 0.2525 ppm (0.04646 ppm chlorantraniliprole), aliphatic acid (salt) 500 ppm, alone or combined; in-vitro
Description: An artificial diet suitable for Trichoplusia ni (cabbage looper caterpillar) was prepared from a commercially available general purpose lepidoptera artificial diet premix (such as General Purpose Lepidoptera Diet available from Frontier Scientific Services, Newark, DE) and mixed in a heated liquid agar media (0.022 g agar per ml of water). The liquid artificial diet and agar media was then used to fill each well of a transparent 96-well treatment plate with 200 μL of the artificial diet and agar media, which was allowed to solidify at room temperature and stored at approximately 4 C.
A 20 μL treatment sample of each treatment formulation was then placed on top of the solidified artificial diet media in a well of a 96 well plate and allowed to dry overnight.
The following day, one neonate Trichoplusia ni (cabbage looper) larva (hatched from eggs obtained from the Benzon Research, Inc. of Carlisle, PA, USA) was added to each well of the plate, after which the wells were sealed with a perforated transparent film, allowing air and moisture exchange. The plates were kept in a suitable regulated indoor incubation environment and the larvae were allowed to feed on the treatment overlaid diet/agar media for 5 days. […] Each experiment contained 8 replicates (larvae cells) for each treatment.
as §1
The following day, one neonate Trichoplusia ni (cabbage looper) larva (hatched from eggs such as available from Benzon Research, Inc. of Carlisle, PA, USA) was added to each well of the plate, after which the wells were sealed with a perforated transparent film, allowing air and moisture exchange. The plates were kept in a suitable regulated indoor incubation environment and the larvae were allowed to feed on the treatment overlaid diet/agar media for 5 days. […] Each experiment contained 8 replicates (larvae cells) for each treatment.
as §1

Row | Structure (SMILES) | Survival Rate (100-mortality)
10 | CCCCCCCC(O)CC(=O)O (stereo not drawn) [3-hydroxdecanoic acid] | 100.00%

same assay, conditions: Table 69A; Coragen 0.2525 ppm, aliphatic acid (salt) 500 ppm, alone or combined; Abbott formula

Row | Structure (SMILES) | Observed Efficacy (mortality), W
11 | CCCCCCCC(O)CC(=O)O (stereo not drawn) [3-hydroxdecanoic acid] | 0.00%

same assay, conditions: Table 69B; Coragen 0.2525 ppm (0.04646 ppm chlorantraniliprole), aliphatic acid (salt) 500 ppm, alone or combined; in-vitro

Row | Structure (SMILES) | Survival Rate (100-(mortality + stunting))
12 | CCCCC(CC)C(=O)O (stereo not drawn) [2-ethylhexanoic acid] | 95.83%
13 | CCCCC(O)C(=O)O (stereo not drawn) [2-hydroxyhexanoic acid] | 91.67%
14 | CCCCCCC(O)C(=O)O (stereo not drawn) [2-hydroxyoctanoic acid] | 100.00%
15 | CCCCCCCCC(C)C(=O)O (stereo not drawn) [2-methyldecanoic acid] | 87.50%
16 | CCCCCCC(C)C(=O)O (stereo not drawn) [2-methyloctanoic acid] | 95.83%
17 | CC(O)CC(=O)O (stereo not drawn) [3-Hydroxybutyric acid, 3-hydroxybutyric acid] | 95.83%
18 | CCCCC=CCC(=O)O [3-Octenoic acid, 3-octenoic acid] | 83.33%
19 | CCCCCCCC(O)CC(=O)O (stereo not drawn) [3-hydroxdecanoic acid] | 87.50%
20 | CCCC(C)CC(=O)O (stereo not drawn) [3-methylhexanoic acid] | 83.33%
21 | CCCCCCC(C)CC(=O)O (stereo not drawn) [3-methylnonanoic acid] | 79.17%
22 | CCC(C)CCC(=O)O (stereo not drawn) [4-methylhexanoic acid] | 100.00%
23 | C=CCCCC(=O)O [5-hexenoic acid] | 100.00%
24 | C=CCCCCCCCC(=O)O [9-Decenoic acid, 9-decenoic acid] | 91.67%
25 | O=C(O)CCCCCCCCCO [10-hydroxydecanoic acid] | 75.00%
26 | O=C(O)CCCCCCCCCCCO [12-hydroxydodecanoic acid] | 91.67%
27 | C/C=C/C=C/C(=O)[O-].[K+] [(2E,4E)-2,4 hexadienoic acid potassium salt] | 95.83%

Row | Structure (SMILES) | Survival Rate (100-(mortality + stunting))
28 | C/C=C/C=C/C(=O)O [(2E,4E)-2,4 hexadienoic acid] | 79.17%
29 | CCCCCCCCCC(=O)O [Decanoic acid] | 83.33%
30 | CCCCCCCCCCCC(=O)O [Dodecanoic acid] | 79.17%
31 | CCCCCCC(=O)O [Heptanoic acid] | 91.67%
32 | CCCCCC(=O)O [Hexanoic acid] | 87.50%
33 | CCCCCCCCC(=O)O [Nonanoic acid] | 95.83%
34 | CCCCCCC/C=C/C(=O)O [Trans-2-decenoic acid, trans-2-decenoic acid] | 79.17%
35 | CCC/C=C/C(=O)O [Trans-2-hexenoic acid, trans-2-hexenoic acid] | 91.67%
36 | CCCCC/C=C/C(=O)O [Trans-2-octenoic acid, trans-2-octenoic acid] | 70.83%
37 | CC/C=C/CC(=O)O [Trans-3-hexenoic acid, trans-3-hexenoic acid] | 91.67%
38 | CC/C=C\CC(=O)O [cis-3-hexenoic acid] | 83.33%
39 | CCC/C=C/C(=O)[O-].[K+] [trans-2-hexenoic acid potassium salt] | 91.67%
40 | CCCCCC/C=C/C(=O)O [trans-2-nonenoic acid] | 75.00%
41 | CCCCCCCC/C=C/C(=O)O [trans-2-undecenoic acid] | 87.50%
42 | CCCC/C=C/CC(=O)O [trans-3-octenoic acid] | 83.33%

same assay, conditions: Table 69B; bioactivity = mortality + growth stunting; Coragen 0.2525 ppm, aliphatic acid (salt) 500 ppm, alone or combined; Abbott formula

Row | Structure (SMILES) | Observed Efficacy (bioactivity), W
43 | CCCCCCCC(O)CC(=O)O (stereo not drawn) [3-hydroxdecanoic acid] | 0.00%

same assay, conditions: Table 70B; Coragen 0.505 ppm (0.09292 ppm chlorantraniliprole), aliphatic acid (salt) 500 ppm, alone or combined; in-vitro

Row | Structure (SMILES) | Survival Rate (100-(mortality + stunted))
44 | CCCC=CCC(=O)O [3-heptenoic acid] | 95.83%
45 | CCCCCC=CCC(=O)O [3-nonenoic acid] | 95.83%
46 | C/C=C/C=C/C(=O)[O-].[K+] [(2E,4E)-2,4 hexadienoic acid potassium salt] | 70.83%
47 | CCCCCC(=O)O [Hexanoic acid] | 100%
48 | CCCCCCCCC(=O)O [Nonanoic acid] | 62.50%
49 | CCCCCCCC(=O)O [Octanoic acid] | 95.83%
50 | CCCCC/C=C/C(=O)O [Trans-2-octenoic acid, trans-2-octenoic acid] | 87.50%
51 | CCC/C=C/C(=O)[O-].[K+] [trans-2-hexenoic acid potassium salt] | 83.33%
52 | CCCCCC/C=C/C(=O)O [trans-2-nonenoic acid] | 100%

system: Trichoplusia ni (cabbage looper) larvae; experiment: In-planta insecticidal efficacy (sprayed green cabbage plants, larval survival, Abbott and Colby formulas) against Trichoplusia ni; type: in vivo; conditions: Table 71, Coragen […] (0.105 ppm chlorantraniliprole), aliphatic acid 750 ppm, alone or combined

Row | Structure (SMILES) | Survival Rate
53 | CCC/C=C/C(=O)O [Trans-2-hexenoic acid, trans-2-hexenoic acid] | 56.50%
54 | CC/C=C/CC(=O)O [Trans-3-hexenoic acid, trans-3-hexenoic acid] | 64.50%

same assay, conditions: Table 71, Coragen […], aliphatic acid 750 ppm, alone or combined, Abbott formula

Row | Structure (SMILES) | Observed Efficacy, W
55 | CCC/C=C/C(=O)O [Trans-2-hexenoic acid, trans-2-hexenoic acid] | 18.71%
56 | CC/C=C/CC(=O)O [Trans-3-hexenoic acid, trans-3-hexenoic acid] | 7.19%

same assay, conditions: Table 72, Coragen […] (0.104 ppm chlorantraniliprole), aliphatic acid 750 ppm, alone or combined

Row | Structure (SMILES) | Survival Rate
57 | O=C(O)CCCCCCCCCO [10-hydroxydecanoic acid] | 73.50%
58 | CCCCCCC/C=C/C(=O)O [Trans-2-decenoic acid, trans-2-decenoic acid] | 81.00%
59 | CCCCC/C=C/C(=O)O [Trans-2-octenoic acid, trans-2-octenoic acid] | 77.00%

same assay, conditions: Table 72, Coragen […], aliphatic acid 750 ppm, alone or combined, Abbott formula

Row | Structure (SMILES) | Observed Efficacy, W
60 | O=C(O)CCCCCCCCCO [10-hydroxydecanoic acid] | 0.00%
61 | CCCCCCC/C=C/C(=O)O [Trans-2-decenoic acid, trans-2-decenoic acid] | 0.00%
62 | CCCCC/C=C/C(=O)O [Trans-2-octenoic acid, trans-2-octenoic acid] | 0.00%

same assay, conditions: Table 73, Coragen […] (0.104 ppm chlorantraniliprole), aliphatic acid 750 ppm, alone or combined

Row | Structure (SMILES) | Survival Rate
63 | O=C(O)CCCCCCCCCO [10-hydroxydecanoic acid] | 40.50%

same assay, conditions: Table 73, Coragen […], aliphatic acid 750 ppm, alone or combined, Abbott formula

Row | Structure (SMILES) | Observed Efficacy, W
64 | O=C(O)CCCCCCCCCO [10-hydroxydecanoic acid] | 36.72%

system: Fusarium oxysporum; experiment: Synergistic Growth Inhibition Assay (MIC / FIC index, 96-well microtiter, resazurin) against Fusarium oxysporum; type: cell-based; conditions: Compound B tested alone; 24 hour incubation
Description: In the Synergistic Growth Inhibition Assay used in accordance with some embodiments of the present disclosure, multiple dilutions of combinations of pesticidal active ingredient and at least one C6-C10 saturated or unsaturated aliphatic acid agents are tested in individual cells for inhibitory activity against a target pest or pathogenic organism. […] In a further such embodiment, the combinations of pesticidal active ingredient and C6-C10 (or alternatively C11 or C12) saturated or unsaturated aliphatic acid agents may be tested in increasing concentrations.
Thus, each well of the microtiter plate is a unique combination of the two agents, at which inhibitory efficacy of the combination against the target pest or pathogen can be determined.
In one embodiment according to the present disclosure, for each row of microtiter cells in the Synergistic Growth Inhibition Assay, the FIC index is calculated from the lowest concentration of the pesticidal active ingredient and one or more C6-C10 saturated or unsaturated aliphatic acid agents necessary to inhibit growth of a target pest or pathogen. The FIC of each component is derived by dividing the concentration of the agent present in that well of the microtiter plate by the minimal inhibitory concentration (MIC) needed of that agent alone to inhibit growth of the target pest or pathogen. […] The FIC index is calculated for each row as follows: […]

Row | Structure (SMILES) | MIC (B)
65 | C/C=C/C=C/C(=O)O [(2E,4E)-2,4-hexadienoic acid] | 125 µg/mL
66 | CCCCCC(=O)O [Hexanoic acid] | 290 µg/mL
